Experimental data published in patent publication US10308667B2, “Oxadiazolopyridine derivatives for use as ghrelin O-acyl transferase (GOAT) inhibitors” (Boehringer Ingelheim International GmbH, priority 2016, dated 2019).

target: human GOAT (Homo sapiens (Human), UniProt Q96T53); assay: Determination of hGOAT Activity in HEK293 Cells after Incubation with Test Compound; type: cell-based; conditions: HEK293 cells stably transfected with preproghrelin and human GOAT; octanoate-BSA 100 μM; acyl-ghrelin in medium by ELISA after 5 hours
Procedure: Determination of hGOAT Activity in HEK293 Cells after Incubation with Test Compound
HEK293 cells stably transfected with two expression vectors, one coding for preproghrelin cDNA and a second for the expression of human GOATcDNA are used as a cellular model. After feeding the cells with octanoic acid for 5 hours, acyl-ghrelin is measured in cell culture medium by an ELISA procedure.
Cellline: Hek293 hGOAT/PPGhrl Clone #1B8Sodium octanoate, Sigma, Cat.-No. C5038
BD Poly-D-Lysin 384-well Plates, black-clear polystyrene BD Bioscience Cat.-No. […] ELISA human acylated Ghrelin Kit purchased from Bertin Pharman (detailed composition of buffers e.g. wash-puffer, ELISA buffer not known)
Cells are plated with a density of 5000 cells/well in 384-well poly-D-lysin plates and incubated for 1 day at 37° C., 5% CO2 in DMEM medium, 10% FCS, 1×NEAA, Puromycin (0.5 μg/ml) and G418 (1 mg/ml). Then the medium is changed to a identical medium without FCS and containing Octanoate-BSA (final concentration 100 μM each) and compound in DMSO (final DMSO concentration 0.3%). After incubation for 5 hours acylghrelin in the medium is measured by ELISA
The medium sample is diluted 1:25 in Elisa buffer, A 25 ul aliquot is transferred to a 384-well ELISA plate previously washed 4 times with 100 μL wash buffer, and 25 μl tracer-solution is added. After incubation overnight (˜20 h) at 4° C. temperature the plate is washed 4 times with 100 μl wash-buffer per well. Finally 50 μl Ellman's reagent is added to each well and the plate is incubated in the dark for 20 minutes. The absorbance is measured at 405 nm in an Envision multilabel reader and the amount of acylated ghrelin is calculated according to a acylated ghrelin standard curve provided in the same plate.
The analysis of the data is performed by calculation of the percentage of acyl-ghrelin produced in the presence of test compound compared to the amount of acyl-ghrelin produced in the vehicle control samples. An inhibitor of the GOAT enzyme will give values between 100% CTL (no inhibition) and 0% CTL (complete inhibition). IC50 values are calculated with Assay Explorer or other suited software based on curve fitting of results of 8 different compound concentrations.

human GOAT, sequence (Q96T53 whole entry): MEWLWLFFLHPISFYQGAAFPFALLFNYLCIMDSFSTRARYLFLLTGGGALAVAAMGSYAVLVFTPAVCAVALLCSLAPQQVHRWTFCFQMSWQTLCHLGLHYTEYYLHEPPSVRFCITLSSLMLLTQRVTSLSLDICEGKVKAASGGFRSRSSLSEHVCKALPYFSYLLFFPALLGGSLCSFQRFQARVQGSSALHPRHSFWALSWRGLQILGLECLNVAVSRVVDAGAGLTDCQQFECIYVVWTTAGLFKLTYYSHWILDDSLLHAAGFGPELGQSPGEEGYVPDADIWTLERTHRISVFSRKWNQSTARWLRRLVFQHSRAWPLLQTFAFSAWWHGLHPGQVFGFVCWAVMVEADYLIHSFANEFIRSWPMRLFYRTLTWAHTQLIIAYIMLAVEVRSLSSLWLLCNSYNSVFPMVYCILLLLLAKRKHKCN

SMILES | IC50 [nM]
Cc1nc2nonc2c(N)c1Cc1ncc(C(F)(F)F)c(C#N)n1 [Example 75, 2-(7-amino-5-methyl-[1,2,5]oxadiazolo[3,4-b]pyridin-6-ylmethyl)-5-(trifluoromethyl)pyrimidine-4-carbonitrile] | 2.7
Cc1nc2nonc2c(N)c1Cc1ccc(Cl)cn1 [Example 8, 6-(5-Chloro-pyridin-2-ylmethyl)-5-methyl-[1,2,5]oxadiazolo[3,4-b]pyridin-7-ylamine] | 0.42
Cc1nc2nonc2c(N)c1Cc1cc(C(F)(F)F)cc(C#N)n1 [Example 36, 6-(7-amino-5-methyl-[1,2,5]oxadiazolo[3,4-b]pyridin-6-ylmethyl)-4-(trifluoromethyl)pyridine-2-carbonitrile] | 6.9
Cc1nc2nonc2c(N)c1Cc1ccc(OC(F)F)c(C(N)=O)n1 [Example 90, 6-(7-Amino-5-methyl-[1,2,5]oxadiazolo[3,4-b]pyridin-6-ylmethyl)-3-difluoromethoxy-pyridine-2-carboxylic Acid Amide] | 0.54
Cc1nc2nonc2c(N)c1Cc1cccc(C(F)(F)F)n1 [Example 52, 5-Methyl-6-(6-trifluoromethyl-pyridin-2-ylmethyl)-[1,2,5]oxadiazolo[3,4-b]pyridin-7-ylamine] | 0.48
Cc1nc2nonc2c(N)c1Cc1ccc(OC2CC2)cn1 [Example 41, 6-[(5-cyclopropoxypyridin-2-yl)methyl]-5-methyl-[1,2,5]oxadiazolo[3,4-b]pyridin-7-amine] | 1.2
Cc1nc2nonc2c(N)c1Cc1ccc(S(C)(=O)=O)cn1 [Example 88, 6-(5-Methanesulfonyl-pyridin-2-ylmethyl)-5-methyl-[1,2,5]oxadiazolo[3,4-b]pyridin-7-ylamine] | 3.3
Cc1nc2nonc2c(N)c1Cc1ncc(C#N)c(C2CCOC2)n1 (stereo not shown) [Example 80, 2-(7-amino-5-methyl-[1,2,5]oxadiazolo[3,4-b]pyridin-6-ylmethyl)-4-(oxolan-3-yl)pyrimidine-5-carbonitrile] | 3.8
Cc1nc2nonc2c(N)c1Cc1ncc(Br)c(C(F)F)n1 [Example 84, 6-[5-bromo-4-(difluoromethyl)pyrimidin-2-yl]methyl-5-methyl-[1,2,5]oxadiazolo[3,4-b]pyridin-7-amine] | 0.21
Cc1cnn(C)c1-c1ccc(Cc2c(C)nc3nonc3c2N)nc1N [Example 68, 6-[6-Amino-5-(2,4-dimethyl-2H-pyrazol-3-yl)-pyridin-2-ylmethyl]-5-methyl-[1,2,5]oxadiazolo[3,4-b]pyridin-7-ylamine] | 0.11
Cc1nc2nonc2c(N)c1Cc1cc(C#N)c(C#N)cn1 [Example 76, 6-(7-amino-5-methyl-[1,2,5]oxadiazolo[3,4-b]pyridin-6-ylmethyl)pyridine-3,4-dicarbonitrile] | 14
Cc1nc2nonc2c(N)c1Cc1ccc(Br)cn1 [Example 5, 6-(5-Bromo-pyridin-2-ylmethyl)-5-methyl-[1,2,5]oxadiazolo[3,4-b]pyridin-7-ylamine] | 0.24
Cc1nc2nonc2c(N)c1Cc1ccc(Br)c(OCCCF)n1 [Example 101, 6-[5-Bromo-6-(3-fluoro-propoxy)-pyridin-2-ylmethyl]-5-methyl-[1,2,5]oxadiazolo[3,4-b]pyridin-7-ylamine] | 0.074
CSc1nc(Cc2c(C)nc3nonc3c2N)ccc1Br [Example 102, 6-(5-Bromo-6-methylsulfanyl-pyridin-2-ylmethyl)-5-methyl-[1,2,5]oxadiazolo[3,4-b]pyridin-7-ylamine] | 0.074
Cc1nc2nonc2c(N)c1Cc1ccc(OC(F)F)cn1 [Example 14, 6-(5-Difluoromethoxy-pyridin-2-ylmethyl)-5-methyl-[1,2,5]oxadiazolo[3,4-b]pyridin-7-ylamine] | 0.67
Cc1nc2nonc2c(N)c1Cc1cc(C(F)(F)F)ccn1 [Example 26, 5-Methyl-6-(4-trifluoromethyl-pyridin-2-ylmethyl)-[1,2,5]oxadiazolo[3,4-b]pyridin-7-ylamine] | 8.8

Results, then the molecule that gave them:

IC50 [nM] | SMILES
0.055 | Cc1nc2nonc2c(N)c1Cc1ccc(C#N)c(NCCC(F)F)n1 [Example 144, 6-(7-Amino-5-methyl-[1,2,5]oxadiazolo[3,4-b]pyridin-6-ylmethyl)-2-(3,3-difluoro-propylamino)-nicotinonitrile]
0.026 | Cc1nc2nonc2c(N)c1Cc1ccc(C#N)c(OCCCF)n1 [Example 108, 6-(7-Amino-5-methyl-[1,2,5]oxadiazolo[3,4-b]pyridin-6-ylmethyl)-2-(3-fluoro-propoxy)-nicotinonitrile]
3.5 | Cc1nc2nonc2c(N)c1Cc1ccc(-n2ccc(C(F)(F)F)n2)c(C#N)n1 [Example 156, 6-(7-Amino-5-methyl-[1,2,5]oxadiazolo[3,4-b]pyridin-6-ylmethyl)-3-(3-trifluoromethyl-pyrazol-1-yl)-pyridine-2-carbonitrile]
0.045 | Cc1nc2nonc2c(N)c1Cc1ccc(Br)c(NCC2(C)COC2)n1 [Example 121, 6-{5-Bromo-6-[(3-methyl-oxetan-3-ylmethyl)-amino]-pyridin-2-ylmethyl}-5-methyl-[1,2,5]oxadiazolo[3,4-b]pyridin-7-ylamine]
1.1 | Cc1nc2nonc2c(N)c1Cc1ccc(C#N)c(NCC(C)(C)C#N)n1 [Example 146, 6-(7-Amino-5-methyl-[1,2,5]oxadiazolo[3,4-b]pyridin-6-ylmethyl)-2-(2-cyano-2,2-dimethyl-ethylamino)-nicotinonitrile]
4.6 | Cc1nc2nonc2c(N)c1Cc1ccc(C#N)c(S(C)(=O)=O)n1 [Example 162, 6-(7-Amino-5-methyl-[1,2,5]oxadiazolo[3,4-b]pyridin-6-ylmethyl)-2-methanesulfonyl-nicotinonitrile]
0.026 | Cc1nc2nonc2c(N)c1Cc1ccc(Br)c(N2CCOCC2)n1 [Example 123, 6-(5-Bromo-6-morpholin-4-yl-pyridin-2-ylmethyl)-5-methyl-[1,2,5]oxadiazolo[3,4-b]pyridin-7-ylamine]
0.096 | Cc1nc2nonc2c(N)c1Cc1ccc(Br)c(NC2CC(F)(F)C2)n1 [Example 128, 6-[5-Bromo-6-(3,3-difluoro-cyclobutylamino)-pyridin-2-ylmethyl]-5-methyl-[1,2,5]oxadiazolo[3,4-b]pyridin-7-ylamine]
0.085 | Cc1nc2nonc2c(N)c1Cc1ccc(Oc2ccccc2)c(C#N)n1 [Example 118, 6-(7-Amino-5-methyl-[1,2,5]oxadiazolo[3,4-b]pyridin-6-ylmethyl)-3-phenoxy-pyridine-2-carbonitrile]
0.086 | Cc1nc2nonc2c(N)c1Cc1ccc(C#N)c(OCC(C)(F)F)n1 [Example 103, 6-(7-Amino-5-methyl-[1,2,5]oxadiazolo[3,4-b]pyridin-6-ylmethyl)-2-(2,2-difluoro-propoxy)-nicotinonitrile]
0.046 | Cc1nc2nonc2c(N)c1Cc1ccc(C#N)c(N2CCC(F)(F)C2)n1 [Example 143, 6-(7-Amino-5-methyl-[1,2,5]oxadiazolo[3,4-b]pyridin-6-ylmethyl)-2-(3,3-difluoro-pyrrolidin-1-yl)-nicotinonitrile]
0.027 | Cc1nc2nonc2c(N)c1Cc1ccc(C#N)c(NCCCF)n1 [Example 149, 6-(7-Amino-5-methyl-[1,2,5]oxadiazolo[3,4-b]pyridin-6-ylmethyl)-2-(3-fluoro-propylamino)-nicotinonitrile]
